Measured values as given in publication PMC6620859, “Synthesis and Preclinical Evaluation of the Fibrin-Binding Cyclic Peptide ^18F-iCREKA: Comparison with Its Contrasted Linear Peptide” (Contrast Media & Molecular Imaging, 2019).
Values joined by “and” are separate entries in the source; they are usually repeats but may differ in a detail not shown here. Equal entries are not always repeated.

Legend:
[1] = type: physicochemical
Procedure: The water partition coefficient was reflected by the logP value of the fluorine-18-labeled peptides. 500 μL of octanol and 500 μL of pure water were added into an EP tube. 185 KBq (5 μCi) of fluorine-18-labeled peptides were added into the solution and well mixed. After centrifugating for 5 min at a speed of 1000 r/min, 300 μL of supernatant liquid and 300 μL of lower liquid were carefully pipetted into two γ countertubes, respectively. The logarithm of the radioactivity ratio of octanol to water was the logP value. The test was repeated four times for each fluorine-18-labeled peptide.

[2] = mouse, in vivo
Procedure: A nude with U87MG xenograft was injected with a dose of approximately 11.1 MBq (0.3 mCi) of ^18F-labeled peptides via the tail vein. The mouse was euthanized at 30 min after injection, the tumor was carefully excised, and the blood was collected. The tumor was cut into pieces and made into homogenates by mixing 200 μL normal saline. The mixture was centrifuged for 10 min at a speed of 12000 r/min. The supernatant liquid was carefully pipetted and transferred into an Amicon® Ultracentrifugal filter device for further centrifugation. The filtrate was injected into an HPLC column to analyze the in vivo stability of fluorine-18-labeled peptide.

fibrin clots = molecular target: T1, fibrin clots (Homo sapiens, UniProt P02671+P02675+P02679); test: Fluorine-18-labeled peptide binding affinity to fibrin clots; details: clots from 75 μL fibrinogen 2 mg/mL + 30 μL thrombin 2.5 U/mL; 100 μL tracer in PBS, 37°C, one hour, PBS washed three times, radioactive counter, four tubes, mean ± SD
T1 sequence (P02671 36-629 limits assumed): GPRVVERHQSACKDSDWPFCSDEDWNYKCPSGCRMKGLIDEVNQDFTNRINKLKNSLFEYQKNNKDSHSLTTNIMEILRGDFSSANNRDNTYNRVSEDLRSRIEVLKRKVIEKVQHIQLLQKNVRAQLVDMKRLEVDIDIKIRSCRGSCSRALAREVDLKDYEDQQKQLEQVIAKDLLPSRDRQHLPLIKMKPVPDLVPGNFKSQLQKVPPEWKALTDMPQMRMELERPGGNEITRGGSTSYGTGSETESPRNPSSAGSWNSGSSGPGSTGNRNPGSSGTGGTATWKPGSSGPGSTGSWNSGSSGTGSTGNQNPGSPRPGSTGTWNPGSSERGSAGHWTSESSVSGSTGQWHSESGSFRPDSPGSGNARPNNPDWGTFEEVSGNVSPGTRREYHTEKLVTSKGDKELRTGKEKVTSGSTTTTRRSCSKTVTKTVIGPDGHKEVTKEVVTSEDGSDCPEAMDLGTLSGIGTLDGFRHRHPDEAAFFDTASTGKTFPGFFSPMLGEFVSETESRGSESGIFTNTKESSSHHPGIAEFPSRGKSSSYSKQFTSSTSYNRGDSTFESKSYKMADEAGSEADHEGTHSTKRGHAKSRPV
T1 sequence (P02675 45-491 limits assumed): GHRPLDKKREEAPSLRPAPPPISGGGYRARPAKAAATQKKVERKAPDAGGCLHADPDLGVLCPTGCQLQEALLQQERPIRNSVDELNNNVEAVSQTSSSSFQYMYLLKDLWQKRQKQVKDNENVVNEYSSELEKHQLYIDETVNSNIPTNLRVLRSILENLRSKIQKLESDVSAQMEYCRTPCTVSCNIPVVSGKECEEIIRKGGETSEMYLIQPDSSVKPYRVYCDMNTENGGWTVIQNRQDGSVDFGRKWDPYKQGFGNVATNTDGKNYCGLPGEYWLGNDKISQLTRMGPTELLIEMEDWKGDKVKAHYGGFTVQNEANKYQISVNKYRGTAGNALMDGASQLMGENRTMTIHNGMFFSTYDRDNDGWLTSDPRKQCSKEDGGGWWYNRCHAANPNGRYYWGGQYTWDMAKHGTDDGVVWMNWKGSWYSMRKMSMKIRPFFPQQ
T1 sequence (P02679 27-437 isoform P02679-2 limits assumed): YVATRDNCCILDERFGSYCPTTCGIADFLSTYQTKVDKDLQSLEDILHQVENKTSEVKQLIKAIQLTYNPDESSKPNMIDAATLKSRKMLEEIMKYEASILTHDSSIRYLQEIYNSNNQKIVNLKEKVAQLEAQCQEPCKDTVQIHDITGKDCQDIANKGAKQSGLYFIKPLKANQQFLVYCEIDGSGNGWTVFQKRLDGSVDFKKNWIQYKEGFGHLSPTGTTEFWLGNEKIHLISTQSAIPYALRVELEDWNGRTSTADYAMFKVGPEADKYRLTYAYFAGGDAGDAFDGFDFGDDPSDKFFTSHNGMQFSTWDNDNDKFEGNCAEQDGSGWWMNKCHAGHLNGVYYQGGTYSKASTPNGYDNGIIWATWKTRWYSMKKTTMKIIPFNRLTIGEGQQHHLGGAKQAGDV
Procedure: As previously reported, to synthesize fibrin clots, 75 μL of fibrinogen solution (2 mg/mL) in 0.9% NaCl was added to four 1.5 mL EP tubes. 30 μL of a 2.5 U/mL thrombin solution in 0.9% NaCl was subsequently added to these tubes. The tubes were placed in the thermostatic oscillator at 37°C for four hours, and the gels representative of fibrin clots were formed in the tubes. 370 KBq (10 μCi) fluorine-18-labeled peptide was diluted in 1 ml PBS. 100 μL of the solution was added into each tube, respectively, and added into four empty tubes for reference. All tubes were incubated at 37°C for one hour. After that, the supernatant liquid was carefully pipetted. PBS was added and pipetted three times to remove any CREKA or peptides not bond to the fibrin clots. Finally, all tubes were measured by a CAPRAC®-R radioactive counter (Imaxeon) to obtain the bond-to-gross ratio.

U87MG cells = test: Cellular uptake test in U87MG cells; type: cell-based, human; details: for cellular uptake to U87MG cells after activation by MMP-2: radio medium mixed with activated MMP-2, compared with no activation; for cellular uptake percentage (ID%), peak / maximum, U87MG cells: without MMP-2 activation, serum-free DMEM, 500 μL/well, 2-120 min, PBS rinsed 3 times, γ counting, 4 wells per time point
Procedure: (§1) U87MG cells and Caov3 cells were counted and uniformly inoculated into 24-well plates. The 24-well plates were marked, and cells were incubated for 24 hours in complete DMEM with 10% fetal bovine serum. Radio medium was prepared by adding 888 KBq (24 μCi) fluorine-18-labeled peptide into 15 mL DMEM without any serum. After incubation, the complete DMEM were poured and the radio medium were added in with 500 μL/well. The remainder medium were collected into 4 γ countertubes with 500 μL/tube to be representative of radioactivity gross. When the time arrived at 2, 5, 15, 30, 60, and 120 min, the radio medium were carefully pipetted out and the wells were carefully rinsed by 1 mL of PBS for 3 times. 4 wells were divided into a group corresponding to one time point. After the rinsing, SDS-NaOH solutions were added into the wells to dissociate the cells. The solutions were collected into γ countertubes to measure the radioactivity. The binding affinity was reflected by the radioactivity percentage, which was recorded as ID%, of the wells and the gross. The final results were recorded as the time-radioactivity curve including the six time points.
(§2) Fluorine-18 labeled peptides binding affinities after activation were also measured by this protocol while the radio-medium were mixed with activated MMP-2 (Abcam).

Caov3 cells = test: Cellular uptake test in Caov3 cells; type: cell-based, human; details: radio medium mixed with activated MMP-2; compared with no activation
Procedure: as §1, §2

U87MG xenograft = details: mouse, in vivo
Procedure: Animal procedures were performed according to the guideline of the Animal Ethics Committee of the Southern Medical University. Approximately 10 × 10^6 U87MG cells and Caov3 cells were suspended in PBS and subcutaneously implanted in the right armpit of female BALB/c nude mice. Tumors were allowed to grow to a size of 0.5–1.5 cm in diameter.
Small-animal PET/CTs were performed at the PET center of Southern Medical University Nanfang Hospital using a PET/CT scanner (Simens Inveon Micro-PET/CT). Tumor-bearing mice (n = 3/group) were intravenously injected with 5.55 MBq of ^18F-NOTA-LP or ^18F-NOTA-iCREKA under isoflurane anesthesia. A ten-minute static PET scan for each animal was acquired at 30, 60, and 120 min after the injection. 120 min dynamic scans were also obtained for ^18F-NOTA-LP and ^18F-NOTA-iCREKA (n = 2/group). The 3-dimensional ordered subset expectation maximization (3D-OSEM) algorithm was used for the PET reconstruction, and CT was applied for attenuation correction. Inveon Research Workplace (IRW) 3.0 software (Siemens, Germany) was used to measure the regions of interest (ROIs). The radioactivity concentrations were computed automatically, and the results were reflected by the unit of percent injected dose per gram (%ID/g). The maximum %ID/g of the ROIs was used for statistical analyses. Tumor-to-muscle (T/M) uptake ratios were calculated by dividing the radioactivity uptake in the tumor by the contralateral shoulder muscle.

Row | Substance | logP value [1] | area under the time-radioactivity curve representative of defluorination, blood [2] [%] | area under the time-radioactivity curve representative of defluorination, tumor [2] [%] | fibrin-binding percentage (bond-to-gross ratio) (fibrin clots) | cellular uptake to U87MG cells after activation by MMP-2 (U87MG cells) | cellular uptake percentage (ID%), peak / maximum, U87MG cells (U87MG cells) | cellular uptake to Caov3 cells after activation by MMP-2 (Caov3 cells) | kidney uptake (U87MG xenograft) | liver uptake (U87MG xenograft) | tumor-to-muscle (T/M) ratio on micro-PET (U87MG xenograft) | maximum T/M ratio on dynamic micro-PET (U87MG xenograft)
1 | CREKAPLGLAGRKKRRQRRRCK (NOTA) (Cys&Cys bridge) (disulfide) [^18F-NOTA-iCREKA] | −2.51 ± 0.01 | 27.78 | 23.28 | 67.92 ± 6.71% | increased | 23.90% and 16.05% | obviously increased | about 27 %ID/g | about 4 %ID/g | 6.48 ± 0.50 | 
2 | CREKAPLGLAGRKKRRQRRRCK (NOTA) [^18F-NOTA-LP, Al^18F-labeled NOTA conjunct of the contrasted linear peptide LP] | −2.57 ± 0.02 |  |  | 67.09 ± 6.20% | increased | 16.05% and 23.90% | slightly higher |  |  | 2.08 ± 0.50 | 2.69 ± 0.35
3 | NOTA-CREKA [^18F-NOTA-CREKA, Al^18F-labeled NOTA conjunct of the pentapeptide CREKA] | −2.47 ± 0.05 |  |  | 69.31% ± 6.82 | still no radioactivity |  | nearly no radioactivity |  |  |  | 
